Results taken from PMC8530378, “Comparison of: (2S,4R)-4-[^18F]Fluoroglutamine, [^11C]Methionine, and 2-Deoxy-2-[^18F]Fluoro-D-Glucose and Two Small-Animal PET/CT Systems Imaging Rat Gliomas” (Frontiers in Oncology, 2021).

Assays:
[1] = [^18F]FGln in vivo stability analysis (bioavailable fraction of whole blood radioactivity); details: both sexes, BDIX, rat, 40 MBq, healthy BDIX rats, approximately 60 min post-injection, n = 10, read-out: Bioavailable [^18F]FGln-fraction of total blood radioactivity
Experimental: Additional healthy BDIX rats (n = 10, 5 male, 5 female) were injected with approximately 40 MBq of [^18F]FGln and 150–200 µL aliquots of blood drawn at 5, 15, 30, 45, and 60 min into a heparin coated vial at 5°C to be assayed. During the final 60 min collection time point, animals were sacrificed under deep anesthesia via cardiac puncture and cervical dislocation. All radioactivity measurements were performed with a 3″ Nal system (Triathler, Hidex Oy, Turku Finland). Whole blood was weighed and measured for radioactivity before being centrifuged at 700 ×g and 4°C for 5 min. The plasma was separated out before being weighed and gamma counted followed by storage on ice for the later described assays. Hematocrit values used were averaged separately for male and female populations with five samples for each group. The following Equation 1 ([23]) was then used to calculate the radioactivity fraction taken up by the red blood cells and the available plasma fraction to avoid including plasma contamination in the blood cell fraction: […]
Where C = radioactivity concentration, ρ = density, RBC = red blood cell, and HCT = hematocrit. […]
Plasma aliquots (80 µL) were then precipitated with methanol (200 µL) before being vortexed thoroughly and centrifuged at 11,000 ×g for 10 min. The two fractions were separated and measured for radioactivity to calculate the unbound radioactivity fraction of the plasma. […]

BT4C gliomas = experiment: Ex vivo brain autoradiography, tumor-to-healthy brain uptake ratio; format: in vivo; details: ex vivo autoradiography of brain slices, BT4C glioma-bearing BDIX rats
Experimental: Ex vivo biodistribution studies were performed for [^18F]FGln with a complete organ list and results are listed in the Supplementary Material Some subjects from each radiopharmaceutical imaging group were sacrificed for autoradiographical and histological studies immediately after PET imaging. All autoradiography images were analyzed with Carimas software (Turku PET Centre, Turku, Finland).
The excised brains containing tumors were frozen with liquid nitrogen, sectioned with a Leica CM3050S cryotome into alternating 20 and 8 µm slices on different slides for hematoxylin/eosin and future histochemical staining respectively. […] The slides were then stained with hematoxylin/eosin and digitally scanned with a Pannoramic 250 Flash slide scanner (3DHistech, Budapest, Hungary) Autoradiographs and light micrographs were then aligned in Carimas software (Turku PET Centre, Turku, Finland) and analyzed therein.

[2] = system: BT4C glioma and healthy brain ROIs; experiment: Reversible two-tissue compartment model of dynamic [^18F]FGln PET; format: in vivo, BDIX rats; details: reversible 2-tissue model, n = 13; for K1 (AB) plasma to tissue transport rate / K1/k2 (AB) equilibrium distribution volume / k3 (AB) rate constant / k3/k4 (AB): arterial blood input; for K1 (FP) plasma to tissue transport rate / K1/k2 (FP) equilibrium distribution volume / k3 (FP) rate constant / k3/k4 (FP): free parent plasma input; for K1 (P) plasma to tissue transport rate / K1/k2 (P) equilibrium distribution volume / k3 (P) rate constant / k3/k4 (P): unbound plasma input
Text: (§1) The dynamic PET image data was then extracted from each separate image and converted to standardized uptake values (SUV) which account for ROI volume, mean ROI radioactivity, subject weight, and total injected radioactivity dose (corrected for decay, residual syringe and cannula radioactivity). The results are shown as SUV ROI radioactivity curves over time as well as tumor-to-healthy brain region (TBR) ratios for improved comparisons. [^18F]FGln uptake data and blood radioactivity data (corrected for bioavailability fraction over time) were also input into multiple pharmacokinetic models described in the "[^18F]FGln Pharmacokinetic Modeling" section.
(§2) Blood input values from the heart left ventricle ROI in the PET image data were corrected for bioavailable fraction with Eqn. 2. Logan ([25]), Patlak ([26]), and two two-compartment models ([27]) (reversible and irreversible) were applied to whole-blood, unbound plasma fraction, and unbound plasma fraction assayed for parent-radiopharmaceutical purity as inputs for tumor and healthy brain ROIs. Mean, standard deviation, and two-tailed unpaired Student's t-test (for camera comparison, modeling values, and gender differences) p-values are reported where applicable.

[3] = system: BT4C glioma and healthy brain ROIs; experiment: Logan plot (reversible uptake model) of dynamic [^18F]FGln PET; format: in vivo, BDIX rats; details: n = 13; for DV (AB): arterial blood radioactivity input; for DV (P): unbound plasma radioactivity fraction input
Text: as §1, §2

[4] = system: BT4C glioma and healthy brain ROIs; experiment: Irreversible two-tissue compartment model of dynamic [^18F]FGln PET; format: in vivo, BDIX rats; details: irreversible 2-tissue model, n = 13; for K1 (AB) plasma to tissue transport rate / K1/k2 (AB) equilibrium distribution volume / k3 (AB) rate constant / k3/(k2+k3) (AB): arterial blood input; for K1 (FP) plasma to tissue transport rate / K1/k2 (FP) equilibrium distribution volume / k3 (FP) rate constant / k3/(k2+k3) (FP): free parent plasma input; for K1 (P) plasma to tissue transport rate / K1/k2 (P) equilibrium distribution volume / k3 (P) rate constant / k3/(k2+k3) (P): unbound plasma input
Text: as §1, §2

[5] = system: BT4C glioma and healthy brain ROIs; experiment: Patlak plot (irreversible uptake model) of dynamic [^18F]FGln PET; format: in vivo, BDIX rats; details: n = 13; for Ic (AB) y intercept: arterial blood input; for Ic (FP) y intercept: free parent plasma input; for Ic (P) y intercept: unbound plasma input
Text: as §1, §2

## NC(=O)[C@H]([18F])C[C@H](N)C(=O)O [[^18F]FGln, (2S,4R)-4-[^18F]Fluoroglutamine]
[1]
  bioavailability at 60 min: 28.1%
BT4C gliomas
  Tumor-to-healthy brain uptake ratio: 4.07 ± 0.49
[2]; healthy brain
  K1 (AB) plasma to tissue transport rate: 0.118 ± 0.132 mL min^-1 mL^-1
  K1/k2 (AB) equilibrium distribution volume: 0.248 ± 0.128 mL mL^-1
  k3 (AB) rate constant: 0.060 ± 0.039 min⁻¹
  k3/k4 (AB): 3.279 ± 1.395 min min^-1
  K1 (FP) plasma to tissue transport rate: 0.033 ± 0.023 mL min^-1 mL^-1
  K1/k2 (FP) equilibrium distribution volume: 0.528 ± 0.363 mL mL^-1
  k3 (FP) rate constant: 0.196 ± 0.354 min⁻¹
  k3/k4 (FP): 4.462 ± 1.312 min min^-1
  K1 (P) plasma to tissue transport rate: 0.041 ± 0.031 mL min^-1 mL^-1
  K1/k2 (P) equilibrium distribution volume: 0.137 ± 0.062 mL mL^-1
  k3 (P) rate constant: 0.086 ± 0.039 min⁻¹
  k3/k4 (P): 4.021 ± 1.249 min min^-1
[2]; tumor
  K1 (AB) plasma to tissue transport rate: 0.133 ± 0.079 mL min^-1 mL^-1
  K1/k2 (AB) equilibrium distribution volume: 0.551 ± 0.221 mL mL^-1
  k3 (AB) rate constant: 0.073 ± 0.054 min⁻¹
  k3/k4 (AB): 2.901 ± 1.331 min min^-1
  K1 (FP) plasma to tissue transport rate: 0.057 ± 0.023 mL min^-1 mL^-1
  K1/k2 (FP) equilibrium distribution volume: 1.646 ± 2.403 mL mL^-1
  k3 (FP) rate constant: 0.291 ± 0.481 min⁻¹
  k3/k4 (FP): 4.466 ± 1.378 min min^-1
  K1 (P) plasma to tissue transport rate: 0.052 ± 0.026 mL min^-1 mL^-1
  K1/k2 (P) equilibrium distribution volume: 0.331 ±0.125 mL mL^-1
  k3 (P) rate constant: 0.231 ± 0.478 min⁻¹
  k3/k4 (P): 3.191 ± 1.559 min min^-1
[3]; free parent plasma input
  Tumor DV/Healthy Brain DV (FP): 2.31 ± 0.40
[3]; healthy brain ROI
  DV (AB): 0.66 ± 0.19
  DV (P): 0.48 ± 0.14
[3]; healthy brain ROI, free parent plasma input
  DV (FP): 1.72 ± 0.66
[3]; tumor ROI
  DV (AB): 1.35 ± 0.36
  DV (P): 1.00 ± 0.30
[3]; tumor ROI, free parent plasma input
  DV (FP): 4.00 ± 1.96
[4]; healthy brain
  K1 (AB) plasma to tissue transport rate: 0.063 ± 0.053 mL min^-1 mL^-1
  K1/k2 (AB) equilibrium distribution volume: 0.338 ± 0.159 mL mL^-1
  k3 (AB) rate constant: 0.022 ± 0.010 min⁻¹
  k3/(k2+k3) (AB): 0.126 ± 0.068 min min^-1
  K1 (FP) plasma to tissue transport rate: 0.033 ± 0.018 mL min^-1 mL^-1
  K1/k2 (FP) equilibrium distribution volume: 0.524 ± 0.324 mL mL^-1
  k3 (FP) rate constant: 0.064 ± 0.063 min⁻¹
  k3/(k2+k3) (FP): 0.420 ± 0.146 min min^-1
  K1 (P) plasma to tissue transport rate: 0.024 ± 0.017 mL min^-1 mL^-1
  K1/k2 (P) equilibrium distribution volume: 0.221 ± 0.105 mL mL^-1
  k3 (P) rate constant: 0.028 ± 0.014 min⁻¹
  k3/(k2+k3) (P): 0.215 ± 0.096 min min^-1
[4]; tumor
  K1 (AB) plasma to tissue transport rate: 0.088 ± 0.039 mL min^-1 mL^-1
  K1/k2 (AB) equilibrium distribution volume: 0.876 ± 0.29 mL mL^-1
  k3 (AB) rate constant: 0.017 ± 0.005 min⁻¹
  k3/(k2+k3) (AB): 0.156 ± 0.078 min min^-1
  K1 (FP) plasma to tissue transport rate: 0.083 ± 0.113 mL min^-1 mL^-1
  K1/k2 (FP) equilibrium distribution volume: 1.841 ± 0.967 mL mL^-1
  k3 (FP) rate constant: 0.105 ± 0.246 min⁻¹
  k3/(k2+k3) (FP): 0.385 ± 0.157 min min^-1
  K1 (P) plasma to tissue transport rate: 0.037 ± 0.015 mL min^-1 mL^-1
  K1/k2 (P) equilibrium distribution volume: 0.685 ± 0.330 mL mL^-1
  k3 (P) rate constant: 0.017 ± 0.007 min⁻¹
  k3/(k2+k3) (P): 0.226 ± 0.078 min min^-1
[5]; healthy brain
  Ic (AB) y intercept: 0.376 ± 0.114
  Ic (FP) y intercept: 0.495 ± 0.195
  Ic (P) y intercept: 0.236 ± 0.076
[5]; tumor
  Ic (AB) y intercept: 0.676 ± 0.221
  Ic (FP) y intercept: 0.823 ± 0.376
  Ic (P) y intercept: 0.418 ± 0.149
